Test system: autologous CD3+ Pan-T cells (CD8+ and CD4+ T cells) with Ad5-transduced CD1c+ Dendritic Cells
Assay: Endogenous autologous normal donor restimulation assay (Ad5-transduced dendritic cells)
Assay type: cell-based, human
Conditions: Table 27, restimulation with overlapping 15-mer peptide pools, maximum across sixteen donors
Procedure: CD1c+ Dendritic Cells (DC) isolated from human normal PBMCs were thawed using media (IMDM (Gibco) supplemented with glutamine, HEPES, 5% human serum (Sigma), and 1× Pen-Strep). DC cells were resuspended in media supplemented with IL-4 (Peprotech, 80 ng/mL) and GM-CSF (Gibco, 80 ng/mL), plated in 6 well microplates, and rested overnight at 37° C. (5% CO2). The following day, DC cells were counted and plated in a 96 well round bottom microplate at a concentration of 30,000 viable cells per well. Ad5 vectors (Vector Biolabs) were dilute in media to an MOI (Multiplicity Of Infection) of 5000 based on Plaque Forming Units. Ad5 vectors for the CEF pool and a “null” were used as controls. DCs were transduced with Ad5 vectors overnight at 37° C. (5% CO2). The following day, the Ad5 vectors were washed off the plate by three sequential centrifugation/aspiration steps using sterile Phosphate Buffered Saline. After the final wash, transduced DCs were resuspended in 100 μL media. Autologous CD3+ Pan-T cells isolated from human normal PBMCs were thawed using media. Pan-T cells were added to the irradiated DCs at 300,000 viable cells per well (100 μL/well). Human IL-15 (Peprotech) was added to all wells at final concentration of 10 ng/mL.
Plates were incubated at 37° C. (5% CO2) for a total of 12 days. Media was refreshed every 2-3 days with IL-15 (10 ng/mL final concentration) and IL-2 (R&D systems, 10 IU/mL final concentration). On day 11 lyophilized peptides (15-mer overlapping peptides) were solubilized in 100% DMSO and pooled by neoantigen to between 5 mg/mL and 20 mg/mL. […]
On day 12, cells were stained for intracellular flow cytometry analysis. […] Cells were washed and resuspended in stain buffer and analyzed using a BD Celesta flow cytometer.
Flow cytometry cell staining analysis was completed using FlowJo v10. […] The CD8+ and CD4+ T cells were analyzed for TNFα/IFNγ expression and the frequency of double positive TNFα/IFNγ CD8+ and the frequency of double positive TNFα/IFNγ CD4+ T cells were recorded. Responses were assessed to be positive when the frequency of double positive TNFα/IFNγ CD8+ or TNFα/IFNγ CD4+ T cells due to stimulation with an experimental peptide pool was increased greater than or equal to 3-fold over the DMSO only negative control for that donor and at least 0.01%.
For three of the neoantigens, an Ad5 vector was designed to transduce normal Dendritic cells with the neoantigens. This assay assessed the ability of the endogenously expressed and presented neoantigens to activate autologous T cells following overlapping 15-mer peptide pools restimulation using the endogenous autologous normal donor restimulation assay described in Example 1 utilizing TNFα and IFNγ production by CD8^+ and CD4^+ T cells as a readout. […]

YEAGMTLGGKILFFLFLLLPLSPFSLIF [Neoantigen P87]
Maximum Fold Change Over Background CD4+ cells: 2.41 | Maximum Fold Change Over Background CD8+ cells: 2.47 | Maximum Frequency of TNFα/IFNγ Double Positive CD4+ T cells: 0.079 | Maximum Frequency of TNFα/IFNγ Double Positive CD8+ T cells: 0.39

Source: patent US20230035403A1, “Method For Determining Responsiveness To Prostate Cancer Treatment” (Janssen Biotech, Inc., priority 2020, published 2023)
